{"source": "patent US20180289702A1", "about": "“LPA LEVEL REDUCTION FOR TREATING CENTRAL NERVOUS SYSTEM DISORDERS” (priority 2015, published 2018)", "key": {"PRG-1+/− mice [1]": {"test_system": "PRG-1+/− mice", "assay": "spontaneous postsynaptic currents (sPSC) with HA130", "type": "cell-based"}, "PRG-1 het mice": {"test_system": "PRG-1 het mice", "assay": "mEPSC recordings with HA-130", "type": "cell-based"}, "[2]": {"test_system": "neuronal hyperexcitability induced by Ketamine", "assay": "ketamine-induced potentiation of evoked local field potentials (LFPs)", "type": "cell-based, mice", "excerpt": "This aim was to unravel whether ATX-inhibition is able to revert cortical hyperexcitability and an altered E/I balance independent of the underlying cause. As previously described (Nosyreva E et al. 2013), ketamine application inhibits spontaneous neurotransmission and induces afterwards a potentiation of synaptic responses over time (FIG. 8A)."}, "PRG-1+/− mice [3]": {"test_system": "PRG-1+/− mice", "assay": "double-pulse whisker stimulation model of sensory gating", "type": "in vivo", "details": "animals with monoallelic PRG-1-deficiency, ISI 500 ms", "excerpt": "In addition to analysis of spontaneous cortical network activity, the inventors assessed pre-attentive cortical information processing and measured sensory gating in a double-pulse whisker stimulation model (FIG. 4A). Local field potentials (recorded in the whisker-specific cortical barrel) in response to repetitive single-whisker stimulation elicited larger amplitudes to second stimulus in PRG-1^+/− when compared to wt (S1; S2; ISI=500 ms; FIG. 4B). […] These findings indicate that already loss of one functional allele of prg-1 as present in mutPRG-1 carriers, and thus a reduction of about 50% of functional PRG-1 at the synapse, causes an apparent E/I-imbalance in cortical networks and an altered sensory gating."}, "PRG-1+/− mice [4]": {"test_system": "PRG-1+/− mice", "assay": "in vivo multi-unit activity (MUA) recordings in S1BF cortex", "details": "1 μM applied into the cortex of living PRG-1+/− mice", "excerpt": "In order to characterize the role of PRG-1 in cortical networks, the inventors then assessed expression of PRG-1 in the cerebral cortex and found strong expression in layer IV of the mouse somatosensory barrel field cortex (FIG. 3A) which was restricted to glutamatergic neurons. […] To understand implications of such a reduced synaptic PRG-1 function in intracortical information processing, the inventors performed multi-channel extracellular recordings in the S1BF cortex of wt and PRG-1^+/- mice in vivo (FIG. 3D). […] This finding points to a change in the cellular E/I balance towards excitation within cortical microcircuitries which has been related to severe behavioral deficits (Yizhar et al., 2011)."}}, "data": [{"smiles": "O=C1S/C(=C\\c2ccc(OCc3cccc(B(O)O)c3)cc2)C(=O)N1Cc1ccc(F)cc1", "note": "[HA130, (Z)-3-((4-((3-(4-Fluorobenzyl)-2,4-dioxo-1,3-thiazolan-5-yliden)-methyl)phenoxy)methyl)benzeneboronic acid]", "values": [{"measurement": "spontaneous postsynaptic currents (sPSC)", "setting": "PRG-1+/− mice [1]; 1 μM", "result": "significant decrease"}, {"measurement": "spontaneous postsynaptic currents (sPSC)", "setting": "PRG-1+/− mice [1]; 10 μM", "result": "significant decrease"}, {"measurement": "mEPSCs (spontaneous glutamatergic release at presynaptic terminals)", "setting": "PRG-1 het mice; 10 μM (FIG. 12B), genotype not stated in the panel legend", "result": "decreased"}, {"measurement": "mEPSCs", "setting": "PRG-1 het mice; 10 μM, PRG-1 het mice (FIG. 12A)", "result": "decreased"}, {"measurement": "ketamine-induced potentiation (evoked LFPs)", "setting": "[2]; 10 μM during ketamine wash out / potentiation phase", "result": "significantly decreased"}, {"measurement": "ketamine-induced potentiation, input-output curves", "setting": "[2]; after HA-130 treatment", "result": "reverted to baseline values"}, {"measurement": "S2/S1-ratio", "setting": "PRG-1+/− mice [3]", "result": "reduced"}, {"measurement": "sensory gating", "setting": "PRG-1+/− mice [3]", "result": "significantly restored"}, {"measurement": "number of multi-unit activity (MUA) bursts", "setting": "PRG-1+/− mice [4]", "result": "significantly decreased"}]}]}
